Source: patent US8067454B2, “Thio-substituted Anthra [1, 2-d] imidazole- 6, 11-dione derivatives, preparation method and application thereof” (National Defense Medical Center, priority 2010, dated 2011)

Columns and labels:
CCRF-CEM = assay: NCI 60-cell drug screen, Leukemia CCRF-CEM; format: cell-based, human; conditions: 1.00E−5 Molar
HL-60(TB) = assay: NCI 60-cell drug screen, Leukemia HL-60(TB); format: cell-based, human; conditions: 1.00E−5 Molar
K-562 = assay: NCI 60-cell drug screen, Leukemia K-562; format: cell-based, human; conditions: 1.00E−5 Molar
RPMI-8226 = assay: NCI 60-cell drug screen, Leukemia RPMI-8226; format: cell-based, human; conditions: 1.00E−5 Molar
A549/ATCC = assay: NCI 60-cell drug screen, Non-Small Cell Lung Cancer A549/ATCC; format: cell-based, human; conditions: 1.00E−5 Molar
EKVX = assay: NCI 60-cell drug screen, Non-Small Cell Lung Cancer EKVX; format: cell-based, human; conditions: 1.00E−5 Molar
HOP-62 = assay: NCI 60-cell drug screen, Non-Small Cell Lung Cancer HOP-62; format: cell-based, human; conditions: 1.00E−5 Molar
HOP-92 = assay: NCI 60-cell drug screen, Non-Small Cell Lung Cancer HOP-92; format: cell-based, human; conditions: 1.00E−5 Molar
NCI-H226 = assay: NCI 60-cell drug screen, Non-Small Cell Lung Cancer NCI-H226; format: cell-based, human; conditions: 1.00E−5 Molar
NCI-H23 = assay: NCI 60-cell drug screen, Non-Small Cell Lung Cancer NCI-H23; format: cell-based, human; conditions: 1.00E−5 Molar
NCI-H322M = assay: NCI 60-cell drug screen, Non-Small Cell Lung Cancer NCI-H322M; format: cell-based, human; conditions: 1.00E−5 Molar
NCI-H460 = assay: NCI 60-cell drug screen, Non-Small Cell Lung Cancer NCI-H460; format: cell-based, human; conditions: 1.00E−5 Molar
NCI-H522 = assay: NCI 60-cell drug screen, Non-Small Cell Lung Cancer NCI-H522; format: cell-based, human; conditions: 1.00E−5 Molar
COLO 205 = assay: NCI 60-cell drug screen, Colon Cancer COLO 205; format: cell-based, human; conditions: 1.00E−5 Molar
HCT-116 = assay: NCI 60-cell drug screen, Colon Cancer HCT-116; format: cell-based, human; conditions: 1.00E−5 Molar
KM12 = assay: NCI 60-cell drug screen, Colon Cancer KM12; format: cell-based, human; conditions: 1.00E−5 Molar
SW-620 = assay: NCI 60-cell drug screen, Colon Cancer SW-620; format: cell-based, human; conditions: 1.00E−5 Molar
SF-268 = assay: NCI 60-cell drug screen, CNS Cancer SF-268; format: cell-based, human; conditions: 1.00E−5 Molar
SF-539 = assay: NCI 60-cell drug screen, CNS Cancer SF-539; format: cell-based, human; conditions: 1.00E−5 Molar
SNB-19 = assay: NCI 60-cell drug screen, CNS Cancer SNB-19; format: cell-based, human; conditions: 1.00E−5 Molar
SNB-75 = assay: NCI 60-cell drug screen, CNS Cancer SNB-75; format: cell-based, human; conditions: 1.00E−5 Molar
LOX IMVI = assay: NCI 60-cell drug screen, Melanoma LOX IMVI; format: cell-based, human; conditions: 1.00E−5 Molar
SK-MEL-2 = assay: NCI 60-cell drug screen, Melanoma SK-MEL-2; format: cell-based, human; conditions: 1.00E−5 Molar
SK-MEL-28 = assay: NCI 60-cell drug screen, Melanoma SK-MEL-28; format: cell-based, human; conditions: 1.00E−5 Molar
SK-MEL-5 = assay: NCI 60-cell drug screen, Melanoma SK-MEL-5; format: cell-based, human; conditions: 1.00E−5 Molar
UACC-257 = assay: NCI 60-cell drug screen, Melanoma UACC-257; format: cell-based, human; conditions: 1.00E−5 Molar
UACC-62 = assay: NCI 60-cell drug screen, Melanoma UACC-62; format: cell-based, human; conditions: 1.00E−5 Molar
IGROV1 = assay: NCI 60-cell drug screen, Ovarian Cancer IGROV1; format: cell-based, human; conditions: 1.00E−5 Molar
OVCAR-4 = assay: NCI 60-cell drug screen, Ovarian Cancer OVCAR-4; format: cell-based, human; conditions: 1.00E−5 Molar
OVCAR-5 = assay: NCI 60-cell drug screen, Ovarian Cancer OVCAR-5; format: cell-based, human; conditions: 1.00E−5 Molar
NCI/ADR-RES = assay: NCI 60-cell drug screen, Ovarian Cancer NCI/ADR-RES; format: cell-based, human; conditions: 1.00E−5 Molar
Protocol: In brief, cellular protein levels were determined after 48 hours of drug exposure by sulforhodamine B colorimetry. Through the use of a time 0 cell control, the cell growth can be determined for each cell line thus allowing calculations of the 50% growth inhibitory concentration (GI50), the total growth inhibition (TGI), and the 50% lethal concentration (LC50). Comparison to plates not exposed to drug permits determination of concentration and times of exposure conferring 50% net growth inhibition (GI50), TGI, and 50% cell kill (LC50).
From the data analysis it follows that approximately 95% of the actives (potent anticancer drugs) from the 60 cell line screen can be identified. By these criteria, 6 compounds (each with its certification number, refer to Table 2) of the invention were reported that having anticancer activity.
The screening system in United State National Cancer Institute (NCI) consists of 60 kinds of different human cancer cells, which can be used to assay the growth-inhibiting ability or cell toxicity of a compound against various cancer and tumor at a certain concentration.
NCI had selected 6 compounds f1-0, f1-1, f3-1, f1-11, f1-2 and f1-15 as test compounds (Table 2). Among these compounds, compound f1-1 was effective against renal cancer cell strain CAKI-1, and could achieve an inhibition effect on the growth of said cancer cell up to −8.01. Compound f1-11 could achieve inhibiting effects against leukemia cell line CCRF-CEM and RPMI-8226, up to −15.39 and −60.17, respectively. Compound f1-2 was effective against central nervous system cancer cell line SNB-75, and could achieve an effect of inhibiting said cancer cell growth up to −9.55. Compound f1-15 was effective against leukemia (blood cancer) cell line K-562, MOLT-4, and RPMI-8226, and could achieve effects of inhibiting said cancer cells growth up to −31.59, −2.90 and −13.69, respectively. Further, compound f1-15 was effective also against renal cancer cell line CAKI-1, and could achieve an effect of inhibiting said cancer cell growth up to −14.89.

A498 = assay: NCI 60-cell drug screen, Renal Cancer A498; format: cell-based, human; conditions: 1.00E−5 Molar
ACHN = assay: NCI 60-cell drug screen, Renal Cancer ACHN; format: cell-based, human; conditions: 1.00E−5 Molar
RXF 393 = assay: NCI 60-cell drug screen, Renal Cancer RXF 393; format: cell-based, human; conditions: 1.00E−5 Molar
SN12C = assay: NCI 60-cell drug screen, Renal Cancer SN12C; format: cell-based, human; conditions: 1.00E−5 Molar
TK-10 = assay: NCI 60-cell drug screen, Renal Cancer TK-10; format: cell-based, human; conditions: 1.00E−5 Molar
PC-3 = assay: NCI 60-cell drug screen, Prostate Cancer PC-3; format: cell-based, human; conditions: 1.00E−5 Molar
BT-549 = assay: NCI 60-cell drug screen, Breast Cancer BT-549; format: cell-based, human; conditions: 1.00E−5 Molar
GBM8901 = assay: MTT assay, GBM8901 tumor cell; conditions: concentration 10 μM, tumor cell

| Compound | Growth Percent, CCRF-CEM (CCRF-CEM) | Growth Percent, HL-60(TB) (HL-60(TB)) | Growth Percent, K-562 (K-562) | Growth Percent, RPMI-8226 (RPMI-8226) | Growth Percent, A549/ATCC (A549/ATCC) | Growth Percent, EKVX (EKVX) | Growth Percent, HOP-62 (HOP-62) | Growth Percent, HOP-92 (HOP-92) | Growth Percent, NCI-H226 (NCI-H226) | Growth Percent, NCI-H23 (NCI-H23) | Growth Percent, NCI-H322M (NCI-H322M) | Growth Percent, NCI-H460 (NCI-H460) | Growth Percent, NCI-H522 (NCI-H522) | Growth Percent, COLO 205 (COLO 205) | Growth Percent, HCT-116 (HCT-116) | Growth Percent, KM12 (KM12) | Growth Percent, SW-620 (SW-620) | Growth Percent, SF-268 (SF-268) | Growth Percent, SF-539 (SF-539) | Growth Percent, SNB-19 (SNB-19) | other results |
| --- | --- | --- | --- | --- | --- | --- | --- | --- | --- | --- | --- | --- | --- | --- | --- | --- | --- | --- | --- | --- | --- |
| CCCSc1nc2ccc3c(c2[nH]1)C(=O)c1ccccc1C3=O [f1-2, 2-(propylthio)-1H-anthra[1,2-d]imidazole-6,11-dione] | 70.83% | 74.23% | 62.88% | 71.75% | 59.15% | 76.83% | 59.09% | 17.25% | 50.24% | 69.80% | 76.02% | 68.12% | 72.38% | 102.68% | 47.69% | 55.17% | 104.18% | 47.81% | 23.99% | 82.03% | Growth Percent, SNB-75 (SNB-75): −9.55%; Growth Percent, LOX IMVI (LOX IMVI): 62.57%; Growth Percent, SK-MEL-2 (SK-MEL-2): 79.33%; Growth Percent, SK-MEL-28 (SK-MEL-28): 92.59%; Growth Percent, SK-MEL-5 (SK-MEL-5): 78.52%; Growth Percent, UACC-257 (UACC-257): 86.31%; Growth Percent, UACC-62 (UACC-62): 51.07%; Growth Percent, IGROV1 (IGROV1): 53.72%; Growth Percent, OVCAR-4 (OVCAR-4): 42.16%; Growth Percent, OVCAR-5 (OVCAR-5): 99.67%; Growth Percent, NCI/ADR-RES (NCI/ADR-RES): 50.22%; Growth Percent, A498 (A498): 57.26%; Growth Percent, ACHN (ACHN): 27.16%; Growth Percent, RXF 393 (RXF 393): 20.07%; Growth Percent, SN12C (SN12C): 80.41%; Growth Percent, TK-10 (TK-10): 35.55%; Growth Percent, PC-3 (PC-3): 66.76%; Growth Percent, BT-549 (BT-549): 76.00%; Cell survival rate (%) GBM8901 (GBM8901): 62 ± 7% |
| O=C1c2ccccc2C(=O)c2c1ccc1nc(SCCN3CCCC3)[nH]c21 [f1-11] | −15.39% | 37.41% | 26.94% | −60.17% | 35.52% | 73.04% | 73.74% | 35.17% | 88.06% | 66.93% | 73.18% | 34.08% | 81.51% | 17.13% | 38.81% | 19.62% | 22.75% | 42.04% | 62.25% | 60.47% | Growth Percent, SNB-75 (SNB-75): 81.75%; Growth Percent, LOX IMVI (LOX IMVI): 11.89%; Growth Percent, SK-MEL-2 (SK-MEL-2): 106.62%; Growth Percent, SK-MEL-28 (SK-MEL-28): 100.23%; Growth Percent, SK-MEL-5 (SK-MEL-5): 78.52%; Growth Percent, UACC-257 (UACC-257): 92.77%; Growth Percent, UACC-62 (UACC-62): 80.95%; Growth Percent, IGROV1 (IGROV1): 23.20%; Growth Percent, OVCAR-4 (OVCAR-4): 57.23%; Growth Percent, OVCAR-5 (OVCAR-5): 87.49%; Growth Percent, NCI/ADR-RES (NCI/ADR-RES): 53.74%; Growth Percent, A498 (A498): 71.37%; Growth Percent, ACHN (ACHN): 34.58%; Growth Percent, RXF 393 (RXF 393): 22.62%; Growth Percent, SN12C (SN12C): 52.94%; Growth Percent, TK-10 (TK-10): 36.86%; Growth Percent, PC-3 (PC-3): 6.90%; Growth Percent, BT-549 (BT-549): 78.62%; Cell survival rate (%) GBM8901 (GBM8901): 18 ± 2% |
